Data from patent US8163921B2, “Hepatitis C virus inhibitors” (Bristol-Myers Squibb Company, priority 2008, dated 2012).

How the values were obtained:
human liver cathepsin B = target: T1, human liver cathepsin B (Homo sapiens, UniProt P07858); assay: Specificity assay, cathepsin B; type: biochemical; conditions: read-out: Cathepsin B activity in the specificity assays
T1 construct: purchased Sigma, EMDbiosciences; host or cells: human liver (as named)
Protocol: (§1) The specificities of compounds of the present disclosure were determined against a variety of serine proteases: human neutrophil elastase (HNE), porcine pancreatic elastase (PPE) and human pancreatic chymotrypsin and one cysteine protease: human liver cathepsin B. In all cases a 96-well plate format protocol using a fluorometric Amino-Methyl-Coumarin (AMC) substrate specific for each enzyme was used as described previously (PCT Patent Application No. WO 00/09543) with some modifications to the serine protease assays. All enzymes were purchased from Sigma, EMDbiosciences while the substrates were from Bachem, Sigma and EMDbiosciences.
(§2) Compound concentrations varied from 100 to 0.4 μM depending on their potency. The enzyme assays were each initiated by addition of substrate to enzyme-inhibitor pre-incubated for 10 min at room temperature and hydrolysis to 15% conversion as measured on cytofluor.
100 mM NaOAC (Sodium Acetate) pH 5.5, 3% DMSO, 1 mM TCEP (Tris(2-carboxyethyl)phosphine hydrochloride), 5 nM Cathepsin B (enzyme stock activated in buffer containing 20 mM TCEP before use), and 2 μM Z-FR-AMC diluted in H2O.
(§3) The percentage of inhibition was calculated using the formula: [1−((UVinh−UVblank)/(UVctl−UVblank))]×100
(§4) A non-linear curve fit was applied to the inhibition-concentration data, and the 50% effective concentration (IC50) was calculated by the use of Excel XLfit software.

[1] = system: human pancreatic chymotrypsin; assay: Specificity assay, chymotrypsin; type: biochemical; conditions: read-out: Chymotrypsin activity in the specificity assays
Protocol: as §1, §2
50 mM Tris(hydroxymethyl)aminomethane hydrochloride (Tris-HCl) pH 8, 0.5 M Sodium Sulfate (Na2SO4), 50 mM NaCl, 0.1 mM EDTA, 3% DMSO, 0.01% Tween-20 with 5 μM LLVY-AMC and 1 nM Chymotrypsin.
as §3, §4

[2] = target: T2, HCV NS3/4A protease complex, H77 strain (Hepatitis C virus genotype 1a, UniProt P27958, C1454S/C1711G); assay: FRET peptide assay to monitor HCV NS3/4A proteolytic activity (H77 strain); type: biochemical, HCV genotype 1a; conditions: read-out: IC50, H177 strain
T2 construct: DNA encoding the recombinant HCV NS3/4A protease complex (amino acids 1027 to 1711) for these strains; inferred from Ni-NTA purification and the pET21b vector; made in house; host or cells: Escherichia coli BL21 (DE3)
Description: (§5) HCV NS3 protease complexes, derived from the BMS strain, H77 strain or J4L6S strain, were generated, as described below. These purified recombinant proteins were generated for use in a homogeneous assay (see below) to provide an indication of how effective compounds of the present disclosure would be in inhibiting HCV NS3 proteolytic activity.
(§6) Serum from an HCV-infected patient was obtained from Dr. T. Wright, San Francisco Hospital. An engineered full-length cDNA (compliment deoxyribonucleic acid) template of the HCV genome (BMS strain) was constructed from DNA fragments obtained by reverse transcription-PCR (RT-PCR) of serum RNA (ribonucleic acid) and using primers selected on the basis of homology between other genotype 1a strains. From the determination of the entire genome sequence, a genotype 1a was assigned to the HCV isolate according to the classification of Simmonds et al. (See P Simmonds, K A Rose, S Graham, S W Chan, F McOmish, B C Dow, E A Follett, P L Yap and H Marsden, J. Clin. Microbiol., 31(6), 1493-1503 (1993)). […]

[3] = target: T3, HCV NS3/4A protease complex, J4L6S strain (Hepatitis C virus genotype 1b, UniProt O92972, C1454S/C1711G); assay: FRET peptide assay to monitor HCV NS3/4A proteolytic activity (J4L6S strain); type: biochemical, HCV genotype 1b; conditions: published J4L6S strain
T3 construct: DNA encoding the recombinant HCV NS3/4A protease complex (amino acids 1027 to 1711) for these strains; inferred from Ni-NTA purification and the pET21b vector; made in house; host or cells: Escherichia coli BL21 (DE3)
Description: as §5, §6

T3 sequence (O92972 1027-1711 C1454S/C1711G, one chain of several): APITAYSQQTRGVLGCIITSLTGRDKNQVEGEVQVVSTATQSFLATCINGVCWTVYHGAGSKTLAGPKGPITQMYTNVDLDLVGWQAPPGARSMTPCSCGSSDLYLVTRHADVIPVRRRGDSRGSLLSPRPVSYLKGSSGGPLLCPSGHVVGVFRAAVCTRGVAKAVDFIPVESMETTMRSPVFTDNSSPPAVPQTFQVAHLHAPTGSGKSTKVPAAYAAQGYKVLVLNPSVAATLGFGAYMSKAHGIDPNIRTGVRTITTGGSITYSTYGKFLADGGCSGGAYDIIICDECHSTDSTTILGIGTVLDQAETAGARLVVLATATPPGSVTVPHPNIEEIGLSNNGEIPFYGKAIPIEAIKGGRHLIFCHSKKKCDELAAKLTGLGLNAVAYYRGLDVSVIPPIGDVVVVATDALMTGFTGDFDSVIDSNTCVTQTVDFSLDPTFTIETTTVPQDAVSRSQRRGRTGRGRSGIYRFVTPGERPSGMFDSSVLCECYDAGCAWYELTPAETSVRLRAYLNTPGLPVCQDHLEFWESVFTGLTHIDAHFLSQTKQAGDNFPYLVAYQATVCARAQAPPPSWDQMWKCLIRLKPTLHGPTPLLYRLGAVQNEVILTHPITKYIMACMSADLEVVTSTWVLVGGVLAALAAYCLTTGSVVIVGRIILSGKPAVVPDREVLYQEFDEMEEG
T2 sequence (P27958 1027-1711 C1454S/C1711G, one chain of several): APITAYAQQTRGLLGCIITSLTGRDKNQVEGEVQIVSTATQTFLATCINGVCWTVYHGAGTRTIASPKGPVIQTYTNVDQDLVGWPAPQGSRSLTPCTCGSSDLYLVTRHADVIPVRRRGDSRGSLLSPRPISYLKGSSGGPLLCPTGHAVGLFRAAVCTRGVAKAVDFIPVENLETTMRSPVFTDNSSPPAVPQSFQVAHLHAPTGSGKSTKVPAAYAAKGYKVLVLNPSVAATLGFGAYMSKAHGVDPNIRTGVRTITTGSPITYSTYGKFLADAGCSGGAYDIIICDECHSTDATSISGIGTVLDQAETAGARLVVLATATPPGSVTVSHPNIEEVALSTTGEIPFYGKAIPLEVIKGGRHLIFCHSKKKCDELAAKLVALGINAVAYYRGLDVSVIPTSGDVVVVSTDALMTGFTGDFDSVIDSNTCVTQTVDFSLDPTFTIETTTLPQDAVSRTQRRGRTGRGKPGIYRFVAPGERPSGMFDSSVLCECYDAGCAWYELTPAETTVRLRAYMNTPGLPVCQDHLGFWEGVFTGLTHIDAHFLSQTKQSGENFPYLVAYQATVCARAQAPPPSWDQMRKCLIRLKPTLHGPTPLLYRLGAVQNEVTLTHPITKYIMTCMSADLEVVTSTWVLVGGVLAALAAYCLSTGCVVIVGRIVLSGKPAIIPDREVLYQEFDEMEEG

SMILES: C=C[C@@H]1C[C@]1(NC(=O)[C@@H]1C[C@@H](Oc2ncc(OC)c3ccc(Cl)cc23)CN1C(=O)[C@@H](Nc1nc(-c2cccc(OC(F)(F)F)c2)cs1)C(C)(C)C)C(=O)NS(=O)(=O)C1CC1 [Example 68]
- IC50 (human liver cathepsin B): 15 µM
- IC50 [1]: 3 µM
- IC50 [2]: 0.0019 µM
- IC50 [3]: 0.0009 µM
